Data from the supplement of paper PMC10307832.

What was measured:
Experiment in all cases: relative viability (nuclei count vs DMSO), 5 days (fraction); higher = more cells survive
EKVX = system: EKVX
Outline: (§1)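 Nuclei were stained with Hoechst during a one-step fixation (final 0.05% Triton X-100, 1% formaldehyde, 1 ug/ml Hoechst) carried out 5 days after dosing, then counted on 4× images. The cells, lung cancer lines in 1536-well plates, had been dosed by pin tool the day after seeding with one drug alone or a fixed anchor-drug dose plus five library-drug doses (not always all listed) in √10 steps. Relative viability is the nuclei count in treated wells divided by that in vehicle wells, and each value is the median of duplicate plates.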

LCLC-97TM1 = system: LCLC-97TM1
Outline: as §1

NCI-H1437 = system: NCI-H1437
Outline: as §1

NCI-H1650 = system: NCI-H1650
Outline: as §1

NCI-H1666 = system: NCI-H1666
Outline: as §1

NCI-H1792 = system: NCI-H1792
Outline: as §1

NCI-H1915 = system: NCI-H1915
Outline: as §1

NCI-H1975 = system: NCI-H1975
Outline: as §1

NCI-H2342 = system: NCI-H2342
Outline: as §1

NCI-H23 = system: NCI-H23
Outline: as §1

NCI-H322M = system: NCI-H322M
Outline: as §1

NCI-H358 = system: NCI-H358
Outline: as §1

NCI-H441 = system: NCI-H441
Outline: as §1

NCI-H460 = system: NCI-H460
Outline: as §1

NCI-H520 = system: NCI-H520
Outline: as §1

NCI-H522 = system: NCI-H522
Outline: as §1

NCI-H596 = system: NCI-H596
Outline: as §1

NCI-H647 = system: NCI-H647
Outline: as §1

NCI-H661 = system: NCI-H661
Outline: as §1

NCI-H727 = system: NCI-H727
Outline: as §1

NCI-H838 = system: NCI-H838
Outline: as §1

PC-3 [JPC-3] = system: PC-3 [JPC-3]
Outline: as §1

SK-LU-1 = system: SK-LU-1
Outline: as §1

Compound: CN1CCN(CCOc2cc(OC3CCOCC3)c3c(Nc4c(Cl)ccc5c4OCO5)ncnc3c2)CC1 [Saracatinib] + CCNC(=O)c1noc(-c2cc(C(C)C)c(O)cc2O)c1-c1ccc(CN2CCOCC2)cc1 [Luminespib] (partner 0.01 µM)
- relative viability (EKVX; first compound 0.02 µM): 0.812
- relative viability (EKVX; first compound 0.6325 µM): 0.883
- relative viability (EKVX; first compound 2 µM): 0.532
- relative viability (LCLC-97TM1; first compound 0.02 µM): 0.8
- relative viability (LCLC-97TM1; first compound 0.2 µM): 0.47
- relative viability (LCLC-97TM1; first compound 0.6325 µM): 0.725
- relative viability (LCLC-97TM1; first compound 2 µM): 0.444
- relative viability (NCI-H1437; first compound 0.02 µM): 1.13
- relative viability (NCI-H1437; first compound 0.2 µM): 1.13
- relative viability (NCI-H1437; first compound 0.6325 µM): 1.17
- relative viability (NCI-H1437; first compound 2 µM): 1.14
- relative viability (NCI-H1650; first compound 0.02 µM): 0.188
- relative viability (NCI-H1650; first compound 0.2 µM): 0.187
- relative viability (NCI-H1650; first compound 0.6325 µM): 0.188
- relative viability (NCI-H1650; first compound 2 µM): 0.221
- relative viability (NCI-H1666; first compound 0.02 µM): 1.01
- relative viability (NCI-H1666; first compound 0.2 µM): 1.09
- relative viability (NCI-H1666; first compound 0.6325 µM): 1.4
- relative viability (NCI-H1666; first compound 2 µM): 1.15
- relative viability (NCI-H1792; first compound 0.02 µM): 0.369
- relative viability (NCI-H1792; first compound 0.2 µM): 0.463
- relative viability (NCI-H1792; first compound 0.6325 µM): 0.449
- relative viability (NCI-H1792; first compound 2 µM): 0.358
- relative viability (NCI-H1915; first compound 0.02 µM): 0.742
- relative viability (NCI-H1915; first compound 0.2 µM): 0.703
- relative viability (NCI-H1915; first compound 0.6325 µM): 0.872
- relative viability (NCI-H1915; first compound 2 µM): 0.654
- relative viability (NCI-H1975; first compound 0.02 µM): 0.202
- relative viability (NCI-H1975; first compound 0.2 µM): 0.243
- relative viability (NCI-H1975; first compound 0.6325 µM): 0.182
- relative viability (NCI-H1975; first compound 2 µM): 0.188
- relative viability (NCI-H2342; first compound 0.02 µM): 0.659
- relative viability (NCI-H2342; first compound 0.2 µM): 0.698
- relative viability (NCI-H2342; first compound 0.6325 µM): 0.758
- relative viability (NCI-H2342; first compound 2 µM): 0.519
- relative viability (NCI-H23; first compound 0.02 µM): 0.247
- relative viability (NCI-H23; first compound 0.2 µM): 0.193
- relative viability (NCI-H23; first compound 0.6325 µM): 0.196
- relative viability (NCI-H23; first compound 2 µM): 0.219
- relative viability (NCI-H322M; first compound 0.02 µM): 0.867
- relative viability (NCI-H322M; first compound 0.2 µM): 0.711
- relative viability (NCI-H322M; first compound 0.6325 µM): 0.682
- relative viability (NCI-H322M; first compound 2 µM): 0.378
- relative viability (NCI-H358; first compound 0.02 µM): 0.174
- relative viability (NCI-H358; first compound 0.2 µM): 0.208
- relative viability (NCI-H358; first compound 0.6325 µM): 0.309
- relative viability (NCI-H358; first compound 2 µM): 0.318
- relative viability (NCI-H441; first compound 0.02 µM): 0.44
- relative viability (NCI-H441; first compound 0.2 µM): 0.268
- relative viability (NCI-H441; first compound 0.6325 µM): 0.286
- relative viability (NCI-H441; first compound 2 µM): 0.247
- relative viability (NCI-H460; first compound 0.02 µM): 0.0378
- relative viability (NCI-H460; first compound 0.2 µM): 0.0238
- relative viability (NCI-H460; first compound 0.6325 µM): 0.0253
- relative viability (NCI-H460; first compound 2 µM): 0.0287
- relative viability (NCI-H520; first compound 0.02 µM): 0.213
- relative viability (NCI-H520; first compound 0.6325 µM): 0.221
- relative viability (NCI-H520; first compound 2 µM): 0.204
- relative viability (NCI-H522; first compound 0.02 µM): 1.13
- relative viability (NCI-H522; first compound 0.2 µM): 0.943
- relative viability (NCI-H522; first compound 0.6325 µM): 1.11
- relative viability (NCI-H522; first compound 2 µM): 0.949
- relative viability (NCI-H596; first compound 0.02 µM): 1.01
- relative viability (NCI-H596; first compound 0.2 µM): 0.74
- relative viability (NCI-H596; first compound 0.6325 µM): 0.84
- relative viability (NCI-H596; first compound 2 µM): 0.715
- relative viability (NCI-H647; first compound 0.02 µM): 0.175
- relative viability (NCI-H647; first compound 0.2 µM): 0.171
- relative viability (NCI-H647; first compound 0.6325 µM): 0.303
- relative viability (NCI-H647; first compound 2 µM): 0.146
- relative viability (NCI-H661; first compound 0.02 µM): 0.948
- relative viability (NCI-H661; first compound 0.2 µM): 0.921
- relative viability (NCI-H661; first compound 0.6325 µM): 0.943
- relative viability (NCI-H661; first compound 2 µM): 0.771
- relative viability (NCI-H727; first compound 0.02 µM): 0.242
- relative viability (NCI-H727; first compound 0.2 µM): 0.316
- relative viability (NCI-H727; first compound 0.6325 µM): 0.266
- relative viability (NCI-H727; first compound 2 µM): 0.239
- relative viability (NCI-H838; first compound 0.02 µM): 0.264
- relative viability (NCI-H838; first compound 0.2 µM): 0.411
- relative viability (NCI-H838; first compound 0.6325 µM): 0.307
- relative viability (NCI-H838; first compound 2 µM): 0.271
- relative viability (PC-3 [JPC-3]; first compound 0.02 µM): 0.732
- relative viability (PC-3 [JPC-3]; first compound 0.2 µM): 0.655
- relative viability (PC-3 [JPC-3]; first compound 0.6325 µM): 0.675
- relative viability (PC-3 [JPC-3]; first compound 2 µM): 0.537
- relative viability (SK-LU-1; first compound 0.02 µM): 0.232
- relative viability (SK-LU-1; first compound 0.2 µM): 0.139
- relative viability (SK-LU-1; first compound 0.6325 µM): 0.145
- relative viability (SK-LU-1; first compound 2 µM): 0.129
